In patent US20120141435A1, “USE OF OLIVE LEAF EXTRACTS IN A PHARMACEUTICAL COMPOSITION FOR INDUCING ANGIOGENESIS AND VASCULOGENESIS” (SANIDAD Y RESIDENCIAS 21, S.A., priority 2009, published 2012):

System: 6 mm excisional wounds on the back of db/db mice
Test: Excisional wound healing in db/db mice (digital planimetry)
Format: in vivo, mouse
Conditions: topical on days 0, 2, 4, 6, 8, 10e-2, 10e-5, 10e-7 m oleuropein, treated (right) and untreated (left) wound, vs PBS
Protocol: Female db/db mice (BKS.Cg-m+/+Lepr^db) aged 10 to 12 weeks were used. They were obtained through Charles River Laboratories (Spain), the average weight of the animals upon reception was 35.64 g. Throughout the entire study, the animals were kept in animal houses particularly designed for allowing control of the animals' environment, such as relative humidity (30-70%), temperature (22±2° C.), air pressure, number of renewals and light period ( 12/12 hours of light/darkness). Access to water was “ad libitum” and the diet was a standard dry pellet diet for rats supplied by PanLab (Barcelona, Spain). After the acclimatization period, the mice were randomly distributed into the different study groups. […]
On day 0 of the experiment, two 6 mm excisional wounds were made on the back of every mouse under aseptic conditions and using surgical instruments. […] The wound healing process was tracked and evaluated throughout the experiment (see FIG. 3). […]
In order to track the wound healing, a digital planimetry method was used whereby the area of every wound was quantified. The inter-group differences have been determined by means of a two-way ANOVA statistical analysis followed by a Bonferroni post-hoc analysis. […]

VEGF was tested, and the “wound healing (wound area)” value was “healing effect”.
